Measured values reported in PubChem BioAssay (NCI).
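96-well plates; 48 h exposure; 5 concentrations. Endpoints by linear interpolation between flanking doses. Not reached: highest tested concentration assigned. GI50 = concentration required for 50% inhibition of growth. The concentration for full growth arrest is given as TGI.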

Experiments:
Test in all cases: DTP human tumour cell line panel, 48 h
U251 CNS = system: U251 CNS
OVCAR-3 ovarian = system: OVCAR-3 ovarian
NCI-H226 lung = system: NCI-H226 lung
CAKI-1 renal = system: CAKI-1 renal
HT29 colon = system: HT29 colon
M14 melanoma = system: M14 melanoma
SN12C renal = system: SN12C renal
SW-620 colon = system: SW-620 colon
MDA-MB-435 = system: MDA-MB-435
RPMI-8226 leukemia = system: RPMI-8226 leukemia

Structure (SMILES) | TGI (U251 CNS) [µM] | TGI (OVCAR-3 ovarian) [µM] | TGI (NCI-H226 lung) [µM] | TGI (CAKI-1 renal) [µM] | TGI (HT29 colon) [µM] | TGI (M14 melanoma) [µM] | TGI (SN12C renal) [µM] | TGI (SW-620 colon) [µM] | TGI (MDA-MB-435) [µM] | TGI (RPMI-8226 leukemia) [µM] | GI50 (OVCAR-3 ovarian) [µM] | GI50 (NCI-H226 lung) [µM] | GI50 (CAKI-1 renal) [nM] | GI50 (HT29 colon) [µM] | GI50 (M14 melanoma) [µM] | GI50 (SN12C renal) [µM] | GI50 (SW-620 colon) [µM] | GI50 (MDA-MB-435) [µM] | GI50 (RPMI-8226 leukemia) [nM] | GI50 (U251 CNS) [nM]
CCOC(=O)Cn1c(C(F)(F)F)nc2nc(Cl)c(Cl)nc21 | > 100 | 54.2 | > 100 | 11.5 | > 100 | > 100 | > 100 | > 100 | > 100 | 26.7 |  |  |  |  |  |  |  |  |  | 
CCOC(=O)/C=C/CC(C)(C)CCOC(C)=O | > 10 | > 10 | > 10 | > 10 | > 10 | > 10 | > 10 | > 10 | > 10 | > 10 |  |  |  |  |  |  |  |  |  | 
CC1CCc2nc[nH]c(=O)c21 (centres undefined) |  | > 100 | > 100 | > 100 | > 100 | > 100 | > 100 | > 100 | > 100 | > 100 | > 100 | > 100 | > 100000 | > 100 | > 100 | > 100 | > 100 | > 100 | > 100000 | 
O=C(Nc1ccc(F)cc1)Nc1ccc(Cl)c([N+](=O)[O-])c1 | 12.5 | 19.1 | 9.3 |  | 12.4 | 12.3 | 11.7 | 13.9 | 11.6 | 8.58 | 3.81 | 2.28 |  | 3.2 | 3.14 | 2.95 | 3.45 | 3.07 | 1890 | 3190
O=C(Nc1ccc(-n2ccc3c(NC(=O)c4ccccc4)nccc32)cc1)c1ccc(Cl)c(C(F)(F)F)c1 | 5.3 | 10 | > 50 | 11.8 | 6.31 | 10.7 | 18.3 | 1.44 | 6.52 | 5.54 | 1.35 | 6.17 | 305 | 0.183 | 1.92 | 2.25 | 0.335 | 0.674 | 231 | 95
COC1/C=C/OC2(C)Oc3c(C)c(O)c4c(O)c(c(/C=N/Nc5ccc([N+](=O)[O-])cc5[N+](=O)[O-])c(O)c4c3C2=O)NC(=O)C(C)=C/C=C/C(C)C(O)C(C)C(O)C(C)C(OC(C)=O)C1C (centres undefined) | 3.55 | 2.52 | 3.89 | > 50 |  | 5.86 | > 50 | 2.96 | 3.72 | 14.5 | 1.1 | 1.35 | 2900 |  | 1.61 | 10.2 | 1.19 | 1.28 | 1960 | 1300
Cc1cc(-c2nc(C(=O)Nc3cc4oc(N5CCOCC5)nc4nc3N3CC[C@@H](O)C3)co2)ccn1 | > 100 | > 100 | > 100 | 71.6 | > 100 | > 100 | > 100 | > 100 | > 100 | > 100 | 27 | > 100 | 17100 | > 100 | 35.9 | 26 | 28.4 | 40.7 | 25800 | 74300
